Data as given in ChEMBL document CHEMBL5257079, “Discovery of FXR/PPARγ dual partial agonist” (Bioorg Med Chem, 2023).
Calls of active or inactive are those of the source. The rule behind the calls is not given here.

Columns and labels:
[1] = target: T1, Bile acid receptor (Homo sapiens) (UniProt Q96RI1); test: Partial agonist activity at FXR in human Huh-7 cells assessed as reduction in CDCA-induced SREBP gene expression at 10 uM by RT-PCR analysis; format: cell-based; settings: filed as partial agonist
T1 sequence (whole entry): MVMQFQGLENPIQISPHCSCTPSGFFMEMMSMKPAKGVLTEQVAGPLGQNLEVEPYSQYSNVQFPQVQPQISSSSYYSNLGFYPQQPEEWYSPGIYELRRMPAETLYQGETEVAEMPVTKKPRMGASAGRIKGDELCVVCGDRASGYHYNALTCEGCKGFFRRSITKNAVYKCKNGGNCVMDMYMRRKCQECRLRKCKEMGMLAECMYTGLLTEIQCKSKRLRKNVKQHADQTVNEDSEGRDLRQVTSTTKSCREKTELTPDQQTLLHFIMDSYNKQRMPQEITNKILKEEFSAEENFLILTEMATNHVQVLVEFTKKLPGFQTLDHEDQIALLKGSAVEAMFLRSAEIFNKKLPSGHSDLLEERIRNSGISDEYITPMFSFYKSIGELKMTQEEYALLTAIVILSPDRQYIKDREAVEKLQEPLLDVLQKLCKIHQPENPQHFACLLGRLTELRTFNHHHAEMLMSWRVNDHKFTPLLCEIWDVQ

[2] = target: T1, Bile acid receptor (Homo sapiens); test: Partial agonist activity at FXR in human Huh-7 cells assessed as reduction in CDCA-induced FAS gene expression at 10 uM by RT-PCR analysis; format: cell-based; settings: filed as partial agonist
[3] = target: T1, Bile acid receptor (Homo sapiens); test: Partial agonist activity at FXR in human Huh-7 cells assessed as reduction in CDCA-induced BSEP gene expression at 10 uM by RT-PCR analysis; format: cell-based; settings: filed as partial agonist
[4] = target: T1, Bile acid receptor (Homo sapiens); test: Partial agonist activity at human FXR expressed in Huh-7 cells in presence of CDCA by luciferase reporter gene assay relative to GW4064; format: cell-based
[5] = target: T2, Oxysterols receptor LXR-beta (Homo sapiens) (UniProt P55055); test: Activation of LXR beta (unknown origin) at 10 uM
T2 sequence (whole entry): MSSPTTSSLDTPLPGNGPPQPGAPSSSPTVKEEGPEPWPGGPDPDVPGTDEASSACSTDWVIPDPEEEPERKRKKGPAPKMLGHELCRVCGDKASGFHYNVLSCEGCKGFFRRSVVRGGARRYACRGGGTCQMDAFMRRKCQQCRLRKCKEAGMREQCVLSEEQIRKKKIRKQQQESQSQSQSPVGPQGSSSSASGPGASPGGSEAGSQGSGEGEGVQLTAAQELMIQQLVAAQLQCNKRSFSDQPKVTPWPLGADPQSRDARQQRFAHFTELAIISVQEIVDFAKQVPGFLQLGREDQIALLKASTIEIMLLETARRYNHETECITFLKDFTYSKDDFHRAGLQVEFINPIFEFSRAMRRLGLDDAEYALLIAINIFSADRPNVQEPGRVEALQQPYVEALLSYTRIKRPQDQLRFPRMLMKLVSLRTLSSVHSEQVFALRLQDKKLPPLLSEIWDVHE

[6] = target: T3, Retinoic acid receptor alpha (Homo sapiens) (UniProt P10276); test: Activation of RARalpha (unknown origin) at 10 uM
T3 sequence (whole entry): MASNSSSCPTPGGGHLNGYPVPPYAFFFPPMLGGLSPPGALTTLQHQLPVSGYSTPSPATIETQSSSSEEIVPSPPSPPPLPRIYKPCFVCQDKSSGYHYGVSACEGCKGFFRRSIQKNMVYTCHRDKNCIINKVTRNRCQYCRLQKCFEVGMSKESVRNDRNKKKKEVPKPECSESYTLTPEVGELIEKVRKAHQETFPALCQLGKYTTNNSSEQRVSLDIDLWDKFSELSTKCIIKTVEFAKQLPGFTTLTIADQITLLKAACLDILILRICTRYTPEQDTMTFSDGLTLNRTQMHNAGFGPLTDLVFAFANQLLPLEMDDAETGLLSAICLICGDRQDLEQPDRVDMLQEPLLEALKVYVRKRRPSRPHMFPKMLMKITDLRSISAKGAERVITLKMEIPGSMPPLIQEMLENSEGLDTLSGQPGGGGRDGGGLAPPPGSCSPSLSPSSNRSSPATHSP

[7] = target: T1, Bile acid receptor (Homo sapiens); test: Partial agonist activity at FXR in human Huh-7 cells assessed as reduction in CDCA-induced SHP gene expression at 10 uM by RT-PCR analysis; format: cell-based; settings: filed as partial agonist
[8] = Metabolic stability in mouse liver microsomes assessed as half life; format: ADME, Microsome
[9] = target: T4, Retinoic acid receptor RXR-alpha (Homo sapiens) (UniProt P19793); test: Activation of RXRalpha (unknown origin) at 10 uM
T4 sequence (whole entry): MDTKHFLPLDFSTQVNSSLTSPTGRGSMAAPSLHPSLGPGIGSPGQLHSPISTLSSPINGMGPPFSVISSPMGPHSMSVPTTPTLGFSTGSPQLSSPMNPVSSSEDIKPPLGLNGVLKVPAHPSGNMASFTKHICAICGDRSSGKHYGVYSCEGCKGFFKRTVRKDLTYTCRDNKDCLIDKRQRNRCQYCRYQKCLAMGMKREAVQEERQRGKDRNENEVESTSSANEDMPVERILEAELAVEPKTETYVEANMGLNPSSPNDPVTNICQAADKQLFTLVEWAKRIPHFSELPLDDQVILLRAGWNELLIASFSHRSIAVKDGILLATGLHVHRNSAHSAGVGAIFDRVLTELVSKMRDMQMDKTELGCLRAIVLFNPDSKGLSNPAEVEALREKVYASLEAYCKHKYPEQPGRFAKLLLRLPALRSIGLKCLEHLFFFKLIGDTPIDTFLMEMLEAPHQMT

[10] = target: T5, Oxysterols receptor LXR-alpha (Homo sapiens) (UniProt Q13133); test: Activation of LXR alpha (unknown origin) at 10 uM
T5 sequence (whole entry): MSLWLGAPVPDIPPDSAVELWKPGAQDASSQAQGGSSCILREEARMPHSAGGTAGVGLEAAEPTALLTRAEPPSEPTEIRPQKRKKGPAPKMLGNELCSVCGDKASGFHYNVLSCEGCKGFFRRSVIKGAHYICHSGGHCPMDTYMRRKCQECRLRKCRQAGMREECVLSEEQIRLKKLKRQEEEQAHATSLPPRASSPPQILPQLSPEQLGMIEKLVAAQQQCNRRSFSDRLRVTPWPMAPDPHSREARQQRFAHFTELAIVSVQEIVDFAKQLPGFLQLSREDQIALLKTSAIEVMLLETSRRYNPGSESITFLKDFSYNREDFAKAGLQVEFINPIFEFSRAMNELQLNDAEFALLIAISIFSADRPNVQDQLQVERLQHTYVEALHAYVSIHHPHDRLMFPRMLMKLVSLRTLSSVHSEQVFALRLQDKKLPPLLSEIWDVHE

- Activity [1]: Active
- Activity [2]: Active
- Activity [4]: 35.6%
- Activity [5]: inactive
- Activity [6]: inactive
- Activity [7]: Active
- half-life [8]: 57 min
- Activity [9]: inactive
- Activity [10]: inactive
SMILES: CC(C)(C)c1ccc(-n2cnc3c(NC(=O)Cc4ccc(C(=O)O)cc4)cccc32)cc1
- Activity [3]: Active
